In patent US20250042886A1, “BIS(HETERO)ARYL THIOETHER OXADIAZINES AS FUNGICIDAL COMPOUNDS” (Bayer Aktiengesellschaft, priority 2021, published 2025):

Legend:
[1] = Measurement of Log P values by HPLC on reversed phase columns (EEC directive 79/831 Annex V.A8); format: physicochemical; settings: Table 1, compounds of formula (I); method [a]: LC-UV, acidic range, 0.1% formic acid in water and acetonitrile
Botrytis cinerea = Botrytis cinerea in vitro cell test; format: cell-based; settings: 144 h, liquid culture, 6 days incubation, read-out: efficacy (inhibition of fungal growth); for inhibition at 20 ppm: 20 ppm of active ingredient
Procedure, shortened: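 Compounds from DMSO stocks added at a range of concentrations to a defined mineral-salt/sucrose liquid medium inoculated with B. cinerea spores. After 6 days' incubation, mycelium growth was read by absorbance; inhibition of germination and growth was calculated against fungicide-free control wells.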

Pyrenophora teres = Pyrenophora teres in vitro cell test; format: cell-based; settings: 144 h, liquid culture, 6 days incubation, read-out: efficacy (inhibition of fungal growth); for inhibition at 20 ppm: 20 ppm of active ingredient
Procedure, shortened: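 Compounds in DMSO were added to P. teres spore suspensions in glucose/peptone/yeast-extract liquid medium, testing inhibition of spore germination and mycelium growth. After 6 days, mycelium growth was read by absorbance. Inhibition was calculated relative to fungicide-free control wells.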

Septoria tritici = Septoria tritici in vitro cell test; format: cell-based; settings: Zymoseptoria tritici, 168 h, liquid culture, 7 days incubation, read-out: efficacy (inhibition of fungal growth); for inhibition at 20 ppm: 20 ppm of active ingredient
Procedure: B-11. Septoria tritici In Vitro Cell Test • Solvent: DMSO • Culture medium: 1 g KH2PO4 (VWR), 1 g K2HPO4 (VWR), 0.5 g Urea (VWR), 3 g KNO3 (Prolabo), 10 g saccharose (VWR), 0.5 g MgSO4, 7H2O (Sigma), 0.07 g CaCl2, 2H2O (Prolabo), 0.2 mg MnSO4, H2O (Sigma), 0.6 mg CuSO4, 5H2O (Sigma), 7.9 mg ZnSO4, 7H2O (Sigma), 0.1 mg H3BO3 (Merck), 0.14 mg NaMoO4, 2H2O (Sigma), 2 mg thiamine (Sigma), 0.1 mg biotine (VWR), 4 mg FeSO4, 7H2O (Sigma), QSP 1 liter • Inoculum: spore suspension Fungicides were solubilized in DMSO and the solution used to prepare the required range of concentrations. […] A spore suspension of S. tritici was prepared and diluted to the desired spore density. Fungicides were evaluated for their ability to inhibit spore germination and mycelium growth in liquid culture assay. The compounds were added in the desired concentration to the culture medium with spores. […] Inhibition of fungal growth was determined by comparing the absorbance values in wells containing the fungicides with the absorbance in control wells without fungicides.

Alternaria alternata = Alternaria alternata in vitro cell test; format: cell-based; settings: 120 h, liquid culture, 5 days incubation, read-out: efficacy (inhibition of fungal growth); for inhibition at 20 ppm: 20 ppm of active ingredient
Procedure, shortened: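 Spores in glucose/mycological peptone/yeast extract liquid medium were exposed to DMSO-dissolved fungicides for 5 days. Inhibition of germination and mycelial growth was read spectrophotometrically, comparing absorbance against fungicide-free control wells.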

[2] = system: Colletotrichum lindemuthianum; assay: Colletotrichum lindemuthianum in vitro cell test; format: cell-based; settings: 144 h, liquid culture, 6 days incubation, read-out: efficacy (inhibition of fungal growth); for inhibition at 20 ppm: 20 ppm of active ingredient
Procedure, shortened: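 C. lindemuthianum spores in liquid glucose–peptone–yeast extract medium were exposed to compounds dissolved in DMSO. After 6 days, mycelial growth was measured by absorbance, and inhibition was calculated against compound-free control wells.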

Row | SMILES | chromatographic logP [1] | inhibition at 20 ppm (Botrytis cinerea) [%] | inhibition at 20 ppm (Pyrenophora teres) [%] | inhibition at 20 ppm (Septoria tritici) [%] | inhibition at 20 ppm (Alternaria alternata) [%] | inhibition at 20 ppm [2] [%] | inhibition at 50 µM (Botrytis cinerea; 50 μMol/l of active ingredient) [%] | inhibition at 50 µM (Pyrenophora teres; 50 μMol/l of active ingredient) [%] | inhibition at 50 µM (Septoria tritici; 50 μMol/l of active ingredient) [%] | inhibition at 50 µM (Alternaria alternata; 50 μMol/l of active ingredient) [%] | inhibition at 50 µM ([2]; 50 μMol/l of active ingredient) [%]
1 | Cc1ccc(C[C@H]2CON=C(c3c(Sc4cccc(C(F)(F)F)c4)cnc4ccccc34)N2)c(C)c1 (racemic) [Compound I-030] | 4.57 | 90 to 100 | 90 to 100 | 70 to 79 | 90 to 100 | 90 to 100 |  |  |  |  | 
2 | Cc1cccc(Sc2cnc(C)nc2C2=NOC[C@@H](Cc3ccc(C)cc3C)N2)c1 (racemic) [Compound I-032] | 5.09 | 90 to 100 | 90 to 100 | 90 to 100 | 70 to 79 | 90 to 100 |  |  |  |  | 
3 | FC(F)(F)c1cccc(Sc2cnc(Cl)cc2C2=NOC[C@@H](Cc3ccc(Cl)cc3Cl)N2)c1 (racemic) [Compound I-022] | 4.97 | 90 to 100 | 90 to 100 | 80 to 89 |  | 90 to 100 |  |  |  |  | 
4 | Cc1ccc(C[C@@H]2CON=C(c3nc(C)ncc3Sc3cccc(Cl)c3)N2)c(Cl)c1 (racemic) [Compound I-033] | 5.24 | 90 to 100 | 90 to 100 | 90 to 100 |  | 90 to 100 |  |  |  |  | 
5 | Cc1ccc(C[C@@H]2CON=C(c3c(Sc4cccc(C(F)(F)F)c4)nnc4ccccc34)N2)c(C)c1 (racemic) [Compound I-029] | 4.66 | 90 to 100 | 90 to 100 | 90 to 100 | 90 to 100 | 90 to 100 |  |  |  |  | 
6 | Cc1ccc(C[C@@H]2CON=C(c3nc(C)ncc3Sc3cccc(Cl)c3)N2)c(C)c1 (racemic) [Compound I-031] | 5.16 | 90 to 100 | 90 to 100 | 80 to 89 | 70 to 79 | 90 to 100 |  |  |  |  | 
7 | Cc1cc([C@@H]2CON=C(c3c(Sc4cccc(Cl)c4)nnc(C)c3C)N2)c(C)s1 (racemic) [Compound I-100] | 3.49 |  |  |  |  |  | 90 to 100 | 90 to 100 | 90 to 100 | 90 to 100 | 90 to 100
8 | Cc1cccc(Sc2cnc3ccccc3c2C2=NOC[C@H](Cc3ccc(C)cc3C)N2)c1 (racemic) [Compound I-023] | 4.37 | 90 to 100 | 90 to 100 | 90 to 100 | 90 to 100 | 90 to 100 |  |  |  |  | 
